From ChEMBL document CHEMBL3885881, “DrugMatrix”

Species on record: Rattus norvegicus
Assay: DrugMatrix - Regimen: Daily Repeat
Format: toxicity, organism-based, Sprague-Dawley
Parameters: regimen Daily Repeat, gender Male, age 6-8 weeks
Conditions: in vivo, po, route oral GAVAGE, vehicle .5 % CMC; for ABSOLUTE BASOPHIL / ABSOLUTE EOSINOPHIL / ABSOLUTE LYMPHOCYTE / ABSOLUTE MONOCYTE / ABSOLUTE SEGMENTED NEUTROPHIL / BASOPHIL / EOSINOPHIL / ERYTHROCYTE COUNT / HEMATOCRIT / HEMOGLOBIN / LEUKOCYTE COUNT / LYMPHOCYTE / MEAN CORPUSCULAR HEMOGLOBIN / MEAN CORPUSCULAR HEMOGLOBIN CONCENTRATION / MEAN CORPUSCULAR VOLUME / MONOCYTE / NEUTROPHIL / NUCLEATED RED BLOOD CELLS / PLATELET COUNT: tissue Blood; for ALANINE AMINOTRANSFERASE / ALBUMIN / ALKALINE PHOSPHATASE / ASPARTATE AMINOTRANSFERASE / BLOOD UREA NITROGEN / CARBON DIOXIDE / CHLORIDE / CHOLESTEROL / CREATINE PHOSPHOKINASE / CREATININE / GLUCOSE / LACTATE DEHYDROGENASE / LIPASE / PHOSPHORUS / POTASSIUM / SODIUM / TOTAL BILIRUBIN / TOTAL PROTEIN / URIC ACID: tissue Plasma
[1] = 20 mg/kg, 120 h, dose level Low, time 5 day
[2] = 1500 mg/kg, 72 h, dose level High, time 3 day
[3] = 1500 mg/kg, 120 h, dose level High, time 5 day

CC(C)(C)NC(=O)[C@@H]1C[C@@H]2CCCC[C@@H]2CN1C[C@@H](O)[C@H](Cc1ccccc1)NC(=O)[C@H](CC(N)=O)NC(=O)c1ccc2ccccc2n1
ABSOLUTE BASOPHIL [1]: 0 CELLS/uL | ABSOLUTE EOSINOPHIL [1]: 247 CELLS/uL | ABSOLUTE LYMPHOCYTE [1]: 11820.33 CELLS/uL | ABSOLUTE MONOCYTE [1]: 0 CELLS/uL | ABSOLUTE SEGMENTED NEUTROPHIL [1]: 1032.67 CELLS/uL | BASOPHIL [1]: 0% | EOSINOPHIL [1]: 2% | ERYTHROCYTE COUNT [1]: 5.22 x10E6/uL | HEMATOCRIT [1]: 32.83% | HEMOGLOBIN [1]: 12.53 G/DL | LEUKOCYTE COUNT [1]: 13.1 x10E3/uL | LYMPHOCYTE [1]: 90.33% | MEAN CORPUSCULAR HEMOGLOBIN [1]: 24.03 pg | MEAN CORPUSCULAR HEMOGLOBIN CONCENTRATION [1]: 38.2 G/DL | MEAN CORPUSCULAR VOLUME [1]: 63.03 fL | MONOCYTE [1]: 0% | NEUTROPHIL [1]: 7.67% | NUCLEATED RED BLOOD CELLS [1]: 0 /100WBC | PLATELET COUNT [1]: 1193.67 x10E3/uL | ALANINE AMINOTRANSFERASE [1]: 53.33 u/L | ALBUMIN [1]: 4.33 G/DL | ALKALINE PHOSPHATASE [1]: 341.67 u/L | ASPARTATE AMINOTRANSFERASE [1]: 80.67 u/L | BLOOD UREA NITROGEN [1]: 18 mg/dL | CARBON DIOXIDE [1]: 25.33 mmol/L | CHLORIDE [1]: 102.67 MEQ/L | CHOLESTEROL [1]: 79.33 mg/dL | CREATINE PHOSPHOKINASE [1]: 166.33 u/L | CREATININE [1]: 0.19 mg/dL | GLUCOSE [1]: 146.67 mg/dL | LACTATE DEHYDROGENASE [1]: 98.33 u/L | LIPASE [1]: 8.67 u/L | PHOSPHORUS [1]: 11.57 mg/dL | POTASSIUM [1]: 5.98 MEQ/L | SODIUM [1]: 144.17 MEQ/L | TOTAL BILIRUBIN [1]: 0.17 mg/dL | TOTAL PROTEIN [1]: 6.37 G/DL | URIC ACID [1]: 1.27 mg/dL | ABSOLUTE BASOPHIL [2]: 0 CELLS/uL | ABSOLUTE EOSINOPHIL [2]: 137.33 CELLS/uL | ABSOLUTE LYMPHOCYTE [2]: 12869.33 CELLS/uL | ABSOLUTE MONOCYTE [2]: 0 CELLS/uL | ABSOLUTE SEGMENTED NEUTROPHIL [2]: 1126.67 CELLS/uL | BASOPHIL [2]: 0% | EOSINOPHIL [2]: 1% | ERYTHROCYTE COUNT [2]: 6.18 x10E6/uL | HEMATOCRIT [2]: 38.67% | HEMOGLOBIN [2]: 14.47 G/DL | LEUKOCYTE COUNT [2]: 14.13 x10E3/uL | LYMPHOCYTE [2]: 91% | MEAN CORPUSCULAR HEMOGLOBIN [2]: 23.47 pg | MEAN CORPUSCULAR HEMOGLOBIN CONCENTRATION [2]: 37.4 G/DL | MEAN CORPUSCULAR VOLUME [2]: 62.63 fL | MONOCYTE [2]: 0% | NEUTROPHIL [2]: 8% | NUCLEATED RED BLOOD CELLS [2]: 0 /100WBC | PLATELET COUNT [2]: 1247.33 x10E3/uL | ALANINE AMINOTRANSFERASE [2]: 48.67 u/L | ALBUMIN [2]: 4.4 G/DL | ALKALINE PHOSPHATASE [2]: 408 u/L | ASPARTATE AMINOTRANSFERASE [2]: 76.67 u/L | BLOOD UREA NITROGEN [2]: 14 mg/dL | CARBON DIOXIDE [2]: 26.67 mmol/L | CHLORIDE [2]: 99.67 MEQ/L | CHOLESTEROL [2]: 80 mg/dL | CREATINE PHOSPHOKINASE [2]: 218.33 u/L | CREATININE [2]: 0.15 mg/dL | GLUCOSE [2]: 162 mg/dL | LACTATE DEHYDROGENASE [2]: 94.33 u/L | LIPASE [2]: 8.67 u/L | PHOSPHORUS [2]: 12.5 mg/dL | POTASSIUM [2]: 6.95 MEQ/L | SODIUM [2]: 144.6 MEQ/L | TOTAL BILIRUBIN [2]: 0.17 mg/dL | TOTAL PROTEIN [2]: 6.17 G/DL | URIC ACID [2]: 1.83 mg/dL | ABSOLUTE BASOPHIL [3]: 0 CELLS/uL | ABSOLUTE EOSINOPHIL [3]: 190 CELLS/uL | ABSOLUTE LYMPHOCYTE [3]: 12822 CELLS/uL | ABSOLUTE MONOCYTE [3]: 0 CELLS/uL | ABSOLUTE SEGMENTED NEUTROPHIL [3]: 1388 CELLS/uL | BASOPHIL [3]: 0% | EOSINOPHIL [3]: 1.33% | ERYTHROCYTE COUNT [3]: 5.33 x10E6/uL | HEMATOCRIT [3]: 33.83% | HEMOGLOBIN [3]: 13.1 G/DL | LEUKOCYTE COUNT [3]: 14.4 x10E3/uL | LYMPHOCYTE [3]: 89.33% | MEAN CORPUSCULAR HEMOGLOBIN [3]: 24.63 pg | MEAN CORPUSCULAR HEMOGLOBIN CONCENTRATION [3]: 38.73 G/DL | MEAN CORPUSCULAR VOLUME [3]: 63.53 fL | MONOCYTE [3]: 0% | NEUTROPHIL [3]: 9.33% | NUCLEATED RED BLOOD CELLS [3]: 0 /100WBC | PLATELET COUNT [3]: 1411.67 x10E3/uL | ALANINE AMINOTRANSFERASE [3]: 48 u/L | ALBUMIN [3]: 4.4 G/DL | ALKALINE PHOSPHATASE [3]: 396.33 u/L | ASPARTATE AMINOTRANSFERASE [3]: 69 u/L | BLOOD UREA NITROGEN [3]: 15.67 mg/dL | CARBON DIOXIDE [3]: 25.67 mmol/L | CHLORIDE [3]: 103.33 MEQ/L | CHOLESTEROL [3]: 71.67 mg/dL | CREATINE PHOSPHOKINASE [3]: 233.33 u/L | CREATININE [3]: 0.17 mg/dL | GLUCOSE [3]: 169 mg/dL | LACTATE DEHYDROGENASE [3]: 123.33 u/L | LIPASE [3]: 8.33 u/L | PHOSPHORUS [3]: 12.8 mg/dL | POTASSIUM [3]: 6.57 MEQ/L | SODIUM [3]: 145.83 MEQ/L | TOTAL BILIRUBIN [3]: 0.23 mg/dL | TOTAL PROTEIN [3]: 6.23 G/DL | URIC ACID [3]: 1.7 mg/dL
